SMILES strings stand for the structures.

This is an account of results in patent US10745355B2, “Anti-cancer compounds” (THE UNIVERSITY OF SYDNEY, priority 2015, dated 2020).

For one test, the system named is U87. Put plainly: Annexin-FITC/7-AAD apoptosis assay, U87 cells. The test is classed as cell-based. The following applies: 48 hours treatment. The procedure:
FIGS. 4A-4D. […] U87 (4A-4B) and U87vIII (4C-4D) cells were treated with SC-38 for 48 hours and stained with Annexin-FITC/7-AAD. Apoptotic cells were visualized using the MUSE cell analyzer (Millipore).
FIGS. 6A-6D. […] U87 (A B) (6A-6B) and U87vIII (6C-6D) cells were treated with compound 1-08 for 48 hours and stained with Annexin-FITC/7-AAD. Apoptotic cells were visualized using the MUSE cell analyzer (Millipore). Results are means±SEM from 3 independent experiments. One-way ANOVA followed by Dunnet post-test was used to calculate statistical significance (***P<0.001).
U87 (FIGS. 4, A-B) and U87vIII (FIG. 4, C-D) cells were treated with SC-38 for 48 hours and stained with Annexin-FITC/7-AAD. Apoptotic cells were visualized using the MUSE cell analyzer (Millipore). Results are means±SEM from 3 independent experiments. One-way ANOVA followed by Dunnet post-test was used to calculate statistical significance (**P<0.01, ***P<0.001)
U87 (FIGS. 6, A-B) and U87vIII (FIG. 6, C-D) cells were treated with compound 1-08 for 48 hours and stained with Annexin-FITC/7-AAD. Apoptotic cells were visualized using the MUSE cell analyzer (Millipore). Results are means±SEM from three independent experiments. One-way ANOVA followed by Dunnet post-test was used to calculate statistical significance (***P<0.001).

Test [1] relates to 387 protein kinases and 13 lipid kinases. Put plainly: Kinase profiling, selectivity score over the whole panel. In kind it is biochemical. Here is the method: (§1) The kinase profiling of compound 1-08 at 10 and 50 μM was performed by ProQinase GmbH (Freiburg, Germany). A radiometric protein kinase assay (^33PanQinase® Activity Assay) and the non-radiometric ADP-Glo™ Assay (Promega, Madison, Wis., USA) were used for measuring kinase activity of 387 protein kinases and 13 lipid kinases, respectively. The results are shown in Table 3 (only the top 10 kinases are listed, and the selectivity score describes the portion of kinases inhibited more than 50% in relation to all tested kinases).

Test [2] concerns the target T1, (Homo sapiens, UniProt P43403).
T1 sequence (P43403 1-619): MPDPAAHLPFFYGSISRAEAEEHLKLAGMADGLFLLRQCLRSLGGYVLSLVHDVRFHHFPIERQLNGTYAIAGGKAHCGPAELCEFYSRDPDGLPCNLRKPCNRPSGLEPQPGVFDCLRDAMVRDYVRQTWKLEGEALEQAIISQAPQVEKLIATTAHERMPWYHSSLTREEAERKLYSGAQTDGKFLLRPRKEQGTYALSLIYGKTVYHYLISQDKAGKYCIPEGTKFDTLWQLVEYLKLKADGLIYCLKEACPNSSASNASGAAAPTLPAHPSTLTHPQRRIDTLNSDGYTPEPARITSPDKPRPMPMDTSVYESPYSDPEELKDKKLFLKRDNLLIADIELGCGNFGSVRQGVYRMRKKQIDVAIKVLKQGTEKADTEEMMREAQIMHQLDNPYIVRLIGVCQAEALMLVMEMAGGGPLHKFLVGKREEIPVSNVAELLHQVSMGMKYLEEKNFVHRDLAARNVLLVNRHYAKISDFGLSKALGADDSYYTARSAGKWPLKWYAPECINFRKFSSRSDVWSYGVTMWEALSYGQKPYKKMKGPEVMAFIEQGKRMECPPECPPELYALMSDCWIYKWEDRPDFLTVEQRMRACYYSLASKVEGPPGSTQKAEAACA
In words: Kinase profiling (ProQinase 33PanQinase Activity Assay), ZAP90. The following applies: read-out: residual activity, ZAP90. The test is classed as biochemical. Here is the method:
as §1

The target of another test is RON (Homo sapiens, UniProt Q04912). Put plainly: Kinase profiling (ProQinase 33PanQinase Activity Assay), RON. The following applies: read-out: residual activity, RON. The test is classed as biochemical. Here is the method: as §1
The next test addresses IGF1R (Homo sapiens, UniProt P08069). In words: Kinase profiling (ProQinase 33PanQinase Activity Assay), IGF1R. The test is classed as biochemical. The following applies: read-out: residual activity, IGF1R. The procedure:
as §1

For the next test, the system named is U87 glioblastoma cells. Put plainly: Immunofluorescence staining of β-tubulin in treated U87 cells (microtubules, multinucleated cells, mitotic spindle). The test is classed as cell-based. Here is the method:
FIGS. 10A-10D. […] (10A) Compound 1-08 inhibits tubulin polymerisation in vitro. Data are expressed as mean from at least 3 independent experiments; each data point was performed in triplicates. (10B) U87 cells treated with compound 1-08 (24 h) were stained with Alexa488-labelled anti-β-tubulin antibody (green) or DAPI (blue). Treatment profoundly disturbed the microtubule network and caused formation of multinucleated cell (white arrows). White scale bar represents 50 μm. Multinucleated cells were manually counted and at least 200 cells were counted for each sample. Data in the bar graph (10C) are expressed as mean±SEM (n=3; * P<0.05, *** P<0.001; 1-way ANOVA followed by Newman-Keuls posttest). (10D) U87 cells were treated with compound 1-08 (48 h), tubulin and DNA were stained as in (10B). Treatment with 1-08 caused defective mitotic spindle formation. Representative images from 3 independent experiments are shown. White scale bar represents 2 μm.
The effect of compound 1-08 on tubulin polymerisation and mitotic spindle formation was also investigated. The fluorescence-based tubulin polymerisation assay was conducted in the final volume of 55 μL using the Tubulin Polymerisation Assay kit (Cytoskeleton, Colo., USA) as per the manufacturer's instructions. Porcine brain tubulin was incubated with test compounds (paclitaxel, vinblastine and compound 1-08) at 37° C. and fluorescence was measured using FLUOstar Omega microplate reader (BMG Labtech, Ortenberg, Germany; excitation at 355 nm and emission at 460 nm). […] To test whether compound 1-08 alters microtubules in vivo, U87 glioblastoma cells were treated with compound 1-08 and the effect on the microtubules was determined by immunofluorescence staining of β-tubulin. […] The consequence of microtubule depolymerisation induced by compound 13 was disrupted spindle assembly (FIG. 10D). In untreated U87 cells undergoing mitosis, microtubules are assembled into bipolar spindles (control images).

Sequence of RON (Q04912 25-1400): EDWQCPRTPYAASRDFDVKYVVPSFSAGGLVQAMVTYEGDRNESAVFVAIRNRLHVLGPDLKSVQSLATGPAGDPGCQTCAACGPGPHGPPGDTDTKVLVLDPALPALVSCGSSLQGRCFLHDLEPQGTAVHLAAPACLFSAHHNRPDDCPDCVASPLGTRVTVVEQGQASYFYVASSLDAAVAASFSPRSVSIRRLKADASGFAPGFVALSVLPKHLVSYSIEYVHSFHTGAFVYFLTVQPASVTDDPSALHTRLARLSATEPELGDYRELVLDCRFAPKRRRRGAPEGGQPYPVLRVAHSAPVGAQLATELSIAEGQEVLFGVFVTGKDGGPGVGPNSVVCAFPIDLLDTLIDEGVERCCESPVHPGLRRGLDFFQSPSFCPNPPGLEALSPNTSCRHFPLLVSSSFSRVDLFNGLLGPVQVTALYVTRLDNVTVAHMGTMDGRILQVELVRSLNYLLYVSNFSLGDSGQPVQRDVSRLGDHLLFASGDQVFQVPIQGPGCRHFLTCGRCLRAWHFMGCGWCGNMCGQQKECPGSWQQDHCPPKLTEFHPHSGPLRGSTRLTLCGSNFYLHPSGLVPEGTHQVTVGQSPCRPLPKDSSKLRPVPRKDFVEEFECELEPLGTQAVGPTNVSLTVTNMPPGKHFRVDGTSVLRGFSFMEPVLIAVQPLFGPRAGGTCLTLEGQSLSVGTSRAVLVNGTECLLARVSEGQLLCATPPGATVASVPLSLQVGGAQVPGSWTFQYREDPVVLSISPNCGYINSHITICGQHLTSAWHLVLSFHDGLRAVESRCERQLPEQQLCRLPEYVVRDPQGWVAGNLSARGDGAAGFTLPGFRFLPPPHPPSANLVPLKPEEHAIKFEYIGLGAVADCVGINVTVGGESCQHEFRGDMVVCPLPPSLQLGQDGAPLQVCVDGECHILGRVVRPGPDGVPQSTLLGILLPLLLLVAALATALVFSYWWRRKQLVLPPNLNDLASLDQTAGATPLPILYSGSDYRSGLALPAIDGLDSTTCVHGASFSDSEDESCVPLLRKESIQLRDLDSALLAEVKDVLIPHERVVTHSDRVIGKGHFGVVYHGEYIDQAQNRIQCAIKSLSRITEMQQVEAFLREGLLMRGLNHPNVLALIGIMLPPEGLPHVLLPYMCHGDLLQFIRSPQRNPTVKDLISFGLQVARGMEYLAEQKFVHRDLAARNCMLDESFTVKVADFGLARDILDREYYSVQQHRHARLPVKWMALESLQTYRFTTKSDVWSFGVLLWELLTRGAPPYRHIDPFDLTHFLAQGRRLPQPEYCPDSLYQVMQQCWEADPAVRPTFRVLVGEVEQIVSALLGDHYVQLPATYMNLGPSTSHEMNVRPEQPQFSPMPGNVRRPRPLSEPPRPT
Sequence of IGF1R (P08069 31-1367): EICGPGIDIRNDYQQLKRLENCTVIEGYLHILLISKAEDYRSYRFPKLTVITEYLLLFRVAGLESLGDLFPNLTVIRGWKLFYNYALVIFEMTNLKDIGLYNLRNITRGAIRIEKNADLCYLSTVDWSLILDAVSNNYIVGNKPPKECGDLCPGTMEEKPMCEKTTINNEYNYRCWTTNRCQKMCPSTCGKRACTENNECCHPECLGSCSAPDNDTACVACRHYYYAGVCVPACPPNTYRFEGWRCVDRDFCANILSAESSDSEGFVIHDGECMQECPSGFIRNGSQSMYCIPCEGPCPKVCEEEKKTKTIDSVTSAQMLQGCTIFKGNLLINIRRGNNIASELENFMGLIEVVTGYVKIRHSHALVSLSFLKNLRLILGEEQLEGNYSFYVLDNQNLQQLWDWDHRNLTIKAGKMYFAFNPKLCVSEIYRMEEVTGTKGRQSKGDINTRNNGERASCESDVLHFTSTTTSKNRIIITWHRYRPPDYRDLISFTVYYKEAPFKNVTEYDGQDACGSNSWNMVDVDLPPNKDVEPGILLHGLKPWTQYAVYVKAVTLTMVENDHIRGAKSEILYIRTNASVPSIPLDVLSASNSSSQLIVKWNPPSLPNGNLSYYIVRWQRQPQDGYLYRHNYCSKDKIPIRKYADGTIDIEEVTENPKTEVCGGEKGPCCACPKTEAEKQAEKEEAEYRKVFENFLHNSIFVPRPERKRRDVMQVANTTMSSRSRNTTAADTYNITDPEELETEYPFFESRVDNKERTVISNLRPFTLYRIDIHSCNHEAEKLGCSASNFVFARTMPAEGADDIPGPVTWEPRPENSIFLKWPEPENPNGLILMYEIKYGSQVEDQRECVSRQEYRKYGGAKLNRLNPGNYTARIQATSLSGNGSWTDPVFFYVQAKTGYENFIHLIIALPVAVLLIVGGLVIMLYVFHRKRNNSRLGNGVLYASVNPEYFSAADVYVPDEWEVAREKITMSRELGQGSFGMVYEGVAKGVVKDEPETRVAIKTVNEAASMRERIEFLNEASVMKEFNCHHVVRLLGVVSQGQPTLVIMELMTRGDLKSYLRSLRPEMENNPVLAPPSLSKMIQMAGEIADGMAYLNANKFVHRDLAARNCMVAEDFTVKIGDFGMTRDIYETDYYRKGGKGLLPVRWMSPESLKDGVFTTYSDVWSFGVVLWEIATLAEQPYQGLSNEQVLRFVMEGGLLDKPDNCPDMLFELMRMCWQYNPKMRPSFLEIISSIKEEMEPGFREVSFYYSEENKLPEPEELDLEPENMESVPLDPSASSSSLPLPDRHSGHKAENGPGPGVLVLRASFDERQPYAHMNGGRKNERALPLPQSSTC

For `O=C(CCCc1ccc(-c2cnc3ccccc3c2)cc1)Nc1ccc(O)cc1` [Compound 1-08, N-(4-hydroxyphenyl)-4-(4-(quinolin-3-yl)phenyl)butanamide], the “apoptosis, U87” value in the test with U87 is “induced apoptosis”. The figures for the “Selectivity score (portion of kinases inhibited more than 50% in relation to all tested kinases)” value in test [1] (10 μM compound) and in test [1] (50 μM compound) were 0.003 and 0.203, respectively. The remaining activity at 10 µM in test [2] (10 μM compound) came to 60%; at RON (10 μM compound), 84%; at IGF1R (10 μM compound), 73%. The remaining activity at 50 µM in test [2] (50 μM compound) was 14%; at RON (50 μM compound) it was 18%; on IGF1R (50 μM compound) it was 15%. For the same compound, the effect on microtubules result in the test with U87 glioblastoma cells (1 and 5 μM, FIG. 10B) is recorded as “disassembly of microtubules”. Further, the “number of multinucleated cells” value with U87 glioblastoma cells (1 and 5 μM, FIGS. 10B and 10C) was “dose-dependent increase in the number of multinucleated cells”. For the same compound, the mitotic spindle formation entry with U87 glioblastoma cells (48 h, FIG. 10D) is “defective spindle formation and chromosome misalignment”.
